Test results published in patent publication US10414769B2, “5,8-dimethyl-9-phenyl-5,8-dihydro-6H-pyrazolo[3,4-h]quinazolin-2-yl)-(1H-pyrazol-3-yl)-amines as IGF-1R/IR inhibitors” (Boehringer Ingelheim International GmbH, priority 2015, dated 2019).

Key:
Assay type in all cases: biochemical
CSNK2A1 (CK2 alpha 1) = molecular target: T1, CSNK2A1 (CK2 alpha 1) (Homo sapiens, UniProt P68400); assay: Z'-LYTE kinase selectivity assay CSNK2A1
T1 construct: purchased Life Technologies PV 3248
Text: (§1) In order to compare the kinase selectivity of compounds (I) according to the invention with known prior art compounds the commercially provided SelectScreen® Kinase Profiling Service (Z′-LYTE®) was used (Life Technologies GmbH, Darmstadt, Germany) to investigate the ability of the compounds to inhibit a number of different, representatively selected human kinases. Further details regarding this service are available on the Life Technologies website at
(§2) The Z′-LYTE® biochemical assay employs a fluorescence-based, coupled-enzyme format and is based on the differential sensitivity of phosphorylated and non-phosphorylated peptides to proteolytic cleavage. The peptide substrate is labeled with two fluorophores—one at each end—that make up a FRET pair.
(§3) In the primary reaction, the kinase transfers the gamma-phosphate of ATP to a single tyrosine, serine or threonine residue in a synthetic FRET-peptide. In the secondary reaction, a site-specific protease recognizes and cleaves non-phosphorylated FRET-peptides. Phosphorylation of FRET-peptides suppresses cleavage by the Development Reagent. Cleavage disrupts FRET between the donor (i.e., coumarin) and acceptor (i.e., fluorescein) fluorophores on the FRET-peptide, whereas uncleaved, phosphorylated FRET-peptides maintain FRET. A ratiometric method, which calculates the ratio (the Emission Ratio) of donor emission to acceptor emission after excitation of the donor fluorophore at 400 nm, is used to quantitate reaction progress, as shown in the equation below.
(§4) The Test Compounds are screened at 1 μM.
The 2×CSNK2A1 (CK2 alpha 1) (# PV 3248)/Ser/Thr 11 (Z′-LYTE® Kinase Assay Kit—Ser/Thr 11 Peptide, # PV 3670) mixture is prepared in 50 mM HEPES pH 7.5, 0.01% BRIJ-35, 10 mM MgCl2, 1 mM EGTA. The final 10 μL Kinase Reaction consists of 0.68-25.7 ng CSNK2A1 (CK2 alpha 1) and 2 μM Ser/Thr 11 in 50 mM HEPES pH 7.5, 0.01% BRIJ-35, 10 mM MgCl2, 1 mM EGTA. After the 1 hour Kinase Reaction incubation, 5 μL of a 1:16 dilution of Development Reagent B is added.

ROCK2 = molecular target: T2, ROCK2 (Homo sapiens, UniProt O75116); assay: Z'-LYTE kinase selectivity assay ROCK2
T2 construct: purchased Life Technologies PV 3759
T2 sequence (O75116 whole entry): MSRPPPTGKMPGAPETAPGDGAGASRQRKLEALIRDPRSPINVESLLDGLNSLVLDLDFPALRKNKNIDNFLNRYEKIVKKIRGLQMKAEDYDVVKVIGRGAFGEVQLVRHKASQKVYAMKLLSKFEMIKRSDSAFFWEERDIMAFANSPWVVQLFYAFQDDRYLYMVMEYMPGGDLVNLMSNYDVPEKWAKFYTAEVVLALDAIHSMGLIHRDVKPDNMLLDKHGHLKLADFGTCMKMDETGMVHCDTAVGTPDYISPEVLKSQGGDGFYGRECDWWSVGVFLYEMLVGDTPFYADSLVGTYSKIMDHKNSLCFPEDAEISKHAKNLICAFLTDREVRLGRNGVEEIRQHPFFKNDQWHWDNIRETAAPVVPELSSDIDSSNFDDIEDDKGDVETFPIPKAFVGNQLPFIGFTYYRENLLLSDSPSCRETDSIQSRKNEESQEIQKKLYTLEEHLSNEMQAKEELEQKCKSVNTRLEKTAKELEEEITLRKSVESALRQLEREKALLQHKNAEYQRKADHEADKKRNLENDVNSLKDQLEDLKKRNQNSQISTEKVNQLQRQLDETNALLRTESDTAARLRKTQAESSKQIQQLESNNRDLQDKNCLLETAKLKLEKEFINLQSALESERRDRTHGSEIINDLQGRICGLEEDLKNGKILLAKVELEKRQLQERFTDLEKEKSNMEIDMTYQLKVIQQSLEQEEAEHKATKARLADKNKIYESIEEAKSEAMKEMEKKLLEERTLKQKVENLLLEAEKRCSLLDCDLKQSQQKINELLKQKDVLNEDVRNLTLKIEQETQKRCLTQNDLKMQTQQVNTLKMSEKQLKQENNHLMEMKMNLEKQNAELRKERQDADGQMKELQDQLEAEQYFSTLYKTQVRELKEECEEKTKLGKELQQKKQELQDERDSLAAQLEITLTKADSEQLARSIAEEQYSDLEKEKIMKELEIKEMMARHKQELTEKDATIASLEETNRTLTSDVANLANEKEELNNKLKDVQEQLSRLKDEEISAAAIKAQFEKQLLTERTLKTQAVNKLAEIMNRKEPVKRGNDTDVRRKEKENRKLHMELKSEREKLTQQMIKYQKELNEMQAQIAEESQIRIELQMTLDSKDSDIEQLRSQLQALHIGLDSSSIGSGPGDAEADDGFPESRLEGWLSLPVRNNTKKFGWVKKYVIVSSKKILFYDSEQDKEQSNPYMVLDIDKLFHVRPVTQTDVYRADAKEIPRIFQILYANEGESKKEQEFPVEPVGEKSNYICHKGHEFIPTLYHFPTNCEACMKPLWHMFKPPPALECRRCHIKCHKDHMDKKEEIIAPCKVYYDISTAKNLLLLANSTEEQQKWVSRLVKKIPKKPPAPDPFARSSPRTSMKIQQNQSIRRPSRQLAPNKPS
Text: as §1, §2, §3, §4
The 2×ROCK2 (# PV 3759)/Ser/Thr 13 (Z′-LYTE® Kinase Assay Kit—Ser/Thr 13 Peptide, # PV 3793) mixture is prepared in 50 mM HEPES pH 7.5, 0.01% BRIJ-35, 10 mM MgCl2. 1 mM EGTA. The final 10 μL Kinase Reaction consists of 0.62-4.13 ng ROCK2 and 2 μM Ser/Thr 13 in 50 mM HEPES pH 7.5, 0.01% BRIJ-35, 10 mM MgCl2, 1 mM EGTA. After the 1 hour Kinase Reaction incubation, 5 μL of a 1:1024 dilution of Development Reagent A is added.

PAK4 = molecular target: T3, PAK4 (Homo sapiens, UniProt O96013); assay: Z'-LYTE kinase selectivity assay PAK4
T3 construct: purchased Life Technologies PV 4212
T3 sequence (O96013 whole entry): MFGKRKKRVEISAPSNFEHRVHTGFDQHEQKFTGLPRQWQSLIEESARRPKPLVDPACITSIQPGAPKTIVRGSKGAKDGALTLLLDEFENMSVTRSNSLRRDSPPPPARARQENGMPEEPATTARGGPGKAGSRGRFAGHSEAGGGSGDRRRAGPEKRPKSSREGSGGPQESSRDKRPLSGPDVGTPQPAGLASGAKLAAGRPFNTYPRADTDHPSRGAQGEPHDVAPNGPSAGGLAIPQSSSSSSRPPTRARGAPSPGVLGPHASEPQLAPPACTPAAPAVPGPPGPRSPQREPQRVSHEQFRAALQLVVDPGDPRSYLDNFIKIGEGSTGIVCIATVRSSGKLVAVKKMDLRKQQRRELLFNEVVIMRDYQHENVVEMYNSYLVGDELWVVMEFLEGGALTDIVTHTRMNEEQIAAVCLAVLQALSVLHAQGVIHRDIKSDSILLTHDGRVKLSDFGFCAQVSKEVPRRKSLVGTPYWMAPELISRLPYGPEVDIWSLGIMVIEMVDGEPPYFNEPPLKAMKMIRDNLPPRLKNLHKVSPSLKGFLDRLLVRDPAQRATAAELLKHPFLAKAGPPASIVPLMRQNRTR
Text: as §1, §2, §3, §4
The 2×PAK4 (# PV 4212)/Ser/Thr 20 (Z′-LYTE® Kinase Assay Kit—Ser/Thr 20 Peptide, # PV 4532) mixture is prepared in 50 mM HEPES pH 7.5, 0.01% BRIJ-35, 10 mM MgCl2, 1 mM EGTA. The final 10 μL Kinase Reaction consists of 0.1-0.75 ng PAK4 and 2 μM Ser/Thr 20 in 50 mM HEPES pH 7.5, 0.01% BRIJ-35, 10 mM MgCl2, 1 mM EGTA. After the 1 hour Kinase Reaction incubation, 5 μL of a 1:512 dilution of Development Reagent A is added.

STK3 (MST2) = molecular target: T4, STK3 (MST2) (Homo sapiens, UniProt Q13188); assay: Z'-LYTE kinase selectivity assay STK3
T4 construct: purchased Life Technologies PV 4805
T4 sequence (Q13188 1-491): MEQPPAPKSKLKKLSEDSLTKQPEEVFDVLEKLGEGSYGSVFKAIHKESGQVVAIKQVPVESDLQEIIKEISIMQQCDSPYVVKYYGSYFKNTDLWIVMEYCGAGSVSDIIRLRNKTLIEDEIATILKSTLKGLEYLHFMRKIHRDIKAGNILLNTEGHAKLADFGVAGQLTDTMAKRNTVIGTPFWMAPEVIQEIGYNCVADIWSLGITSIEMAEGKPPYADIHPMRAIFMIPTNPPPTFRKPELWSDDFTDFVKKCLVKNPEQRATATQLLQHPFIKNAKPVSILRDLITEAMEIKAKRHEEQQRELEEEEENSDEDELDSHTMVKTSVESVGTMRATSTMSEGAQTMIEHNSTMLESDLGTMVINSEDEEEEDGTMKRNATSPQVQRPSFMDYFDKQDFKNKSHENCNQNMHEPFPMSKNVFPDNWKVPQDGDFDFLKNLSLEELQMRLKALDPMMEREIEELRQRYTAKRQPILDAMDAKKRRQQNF
Text: as §1, §2, §3, §4
The 2×STK3 (MST2) (# PV 4805)/Ser/Thr 07 (Z′-LYTE® Kinase Assay Kit—Ser/Thr 7 Peptide, # PV 3180) mixture is prepared in 50 mM HEPES pH 6.5, 0.01% BRIJ-35, 10 mM MgCl2, 1 mM EGTA, 0.02% NaN3. The final 10 μL Kinase Reaction consists of 6.25-38.7 ng STK3 (MST2) and 2 μM Ser/Thr 07 in 50 mM HEPES pH 7.0, 0.01% BRIJ-35, 10 mM MgCl2, 1 mM EGTA, 0.01% NaN3. After the 1 hour Kinase Reaction incubation, 5 μL of a 1:65000 dilution of Development Reagent A is added.

MAPKAPK2 = molecular target: T5, MAPKAPK2 (Homo sapiens, UniProt P49137); assay: Z'-LYTE kinase selectivity assay MAPKAPK2
T5 construct: purchased Life Technologies PV 3317
T5 sequence (P49137 whole entry): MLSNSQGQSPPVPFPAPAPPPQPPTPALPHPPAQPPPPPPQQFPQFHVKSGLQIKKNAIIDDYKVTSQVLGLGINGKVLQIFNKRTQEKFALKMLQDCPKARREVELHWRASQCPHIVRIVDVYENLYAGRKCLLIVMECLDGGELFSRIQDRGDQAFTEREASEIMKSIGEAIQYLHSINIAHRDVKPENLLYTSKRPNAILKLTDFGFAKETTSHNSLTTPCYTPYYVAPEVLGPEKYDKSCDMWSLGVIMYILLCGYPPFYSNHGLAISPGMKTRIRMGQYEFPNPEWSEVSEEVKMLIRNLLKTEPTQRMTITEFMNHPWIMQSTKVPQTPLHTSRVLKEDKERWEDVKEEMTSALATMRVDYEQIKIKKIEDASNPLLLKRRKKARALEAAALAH
Text: as §1, §2, §3, §4
The 2×MAPKAPK2 (# PV 3317)/Ser/Thr 04 (Z′-LYTE® Kinase Assay Kit—Ser/Thr 4 Peptide, # PV 3177) mixture is prepared in 50 mM HEPES pH 7.5, 0.01% BRIJ-35, 10 mM MgCl2, 1 mM EGTA. The final 10 μL Kinase Reaction consists of 0.04-0.18 ng MAPKAPK2 and 2 μM Ser/Thr 04 in 50 mM HEPES pH 7.5, 0.01% BRIJ-35, 10 mM MgCl2, 1 mM EGTA. After the 1 hour Kinase Reaction incubation, 5 μL of a 1:1024 dilution of Development Reagent A is added.

T1 sequence (P68400 whole entry): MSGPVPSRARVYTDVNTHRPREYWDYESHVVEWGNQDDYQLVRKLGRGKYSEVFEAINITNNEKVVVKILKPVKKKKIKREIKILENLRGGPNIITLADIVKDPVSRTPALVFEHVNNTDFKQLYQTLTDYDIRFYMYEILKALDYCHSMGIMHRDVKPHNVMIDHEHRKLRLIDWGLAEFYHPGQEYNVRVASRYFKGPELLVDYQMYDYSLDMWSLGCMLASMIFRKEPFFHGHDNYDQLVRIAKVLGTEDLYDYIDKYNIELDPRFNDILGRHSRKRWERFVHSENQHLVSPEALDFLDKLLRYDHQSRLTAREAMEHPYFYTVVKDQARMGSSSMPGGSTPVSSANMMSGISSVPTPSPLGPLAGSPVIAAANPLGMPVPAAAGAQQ

SMILES | inhibition at 1 µM (CSNK2A1 (CK2 alpha 1)) | inhibition at 1 µM (ROCK2) | inhibition at 1 µM (PAK4) | inhibition at 1 µM (STK3 (MST2)) | inhibition at 1 µM (MAPKAPK2)
C[C@@H]1Cc2nn(C)c(-c3ccccc3)c2-c2nc(Nc3ccn(CCN4CCN(C)CC4)n3)ncc21 [Compound I-1] | 4% | 1% | 14% | 1% | -3%
C[C@@H]1Cc2nn(C)c(-c3ccccc3)c2-c2nc(Nc3ccn(CCN4CCN(CC(=O)OC5CCOCC5)CC4)n3)ncc21 [Compound I-8] | 7% | 7% | 21% | -1% | 5%
C[C@@H]1Cc2nn(C)c(-c3ccccc3)c2-c2nc(Nc3ccn(CCN4CCN(CC(C)(C)O)CC4)n3)ncc21 [Compound I-3] | 3% | 7% | 39% | -1% | 2%
CC(O)CN1CCN(CCn2ccc(Nc3ncc4c(n3)-c3c(nn(C)c3-c3ccccc3)C[C@H]4C)n2)CC1 (some centres unmarked) [Compound I-7] | 8% | 9% | 19% | 15% | 5%
C[C@@H]1Cc2nn(C)c(-c3ccccc3)c2-c2nc(Nc3ccn(CCN4CCOCC4)n3)ncc21 [Compound I-2] | 10% | 6% | 24% | 5% | 1%
C[C@@H]1Cc2nn(C)c(-c3ccccc3)c2-c2nc(Nc3ccn(CCN4CCN(CC5CCCO5)CC4)n3)ncc21 (some centres unmarked) [Compound I-9] | 1% | 3% | 32% | -15% | 3%
COCCN1CCN(CCn2ccc(Nc3ncc4c(n3)-c3c(nn(C)c3-c3ccccc3)C[C@H]4C)n2)CC1 [Compound I-11] | 2% | 9% | 27% | -2% | -2%
